# Measured values: ChEMBL document CHEMBL1201862, “PubChem BioAssay data set” (2004)
#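 Test compounds were applied to cells in 96-well plates for 48 hours at 5 doses. GI50 is the concentration that inhibits growth by half.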 Calls of active or inactive are those of the source. Rule as the data show it: active = GI50 up to about 1.1 µM and inactive = higher.
# Legend:
# Assay in all cases: NCI tumour cell line growth inhibition, 48 h
# MDA-MB-231 = tested on: MDA-MB-231
# HCT-15 = tested on: HCT-15
# ACHN = tested on: ACHN
# HOP-62 = tested on: HOP-62
# HOP-92 = tested on: HOP-92
# K562 = tested on: K562
# OVCAR-3 = tested on: OVCAR-3
# NCI-H522 = tested on: NCI-H522
# SW-620 = tested on: SW-620
# SK-OV-3 = tested on: SK-OV-3
# HL-60 = tested on: HL-60
# OVCAR-4 = tested on: OVCAR-4
# 786-0 = tested on: 786-0
# KM12 = tested on: KM12
# MOLT-4 = tested on: MOLT-4
# NCI-H23 = tested on: NCI-H23
# SN12C = tested on: SN12C
# OVCAR-8 = tested on: OVCAR-8
# MDA-N = tested on: MDA-N
SMILES,GI50 (MDA-MB-231),GI50 (HCT-15),GI50 (ACHN),GI50 (HOP-62),GI50 (HOP-92),GI50 (K562),GI50 (OVCAR-3),GI50 (NCI-H522),GI50 (SW-620),GI50 (SK-OV-3),GI50 (HL-60),GI50 (OVCAR-4),GI50 (786-0),GI50 (KM12),GI50 (MOLT-4),GI50 (NCI-H23),GI50 (SN12C),GI50 (OVCAR-8),GI50 (MDA-N)
CSc1ccc(NC(=S)NN(C)C)cc1,> 10 µM (inactive),> 10 µM,> 10 µM (inactive),> 10 µM (inactive),> 10 µM (inactive),> 10 µM (inactive),> 10 µM (inactive),> 10 µM (inactive),> 10 µM (inactive),> 10 µM (inactive),> 10 µM (inactive),> 10 µM (inactive),> 10 µM (inactive),> 10 µM (inactive),> 10 µM (inactive),> 10 µM (inactive),> 10 µM (inactive),> 10 µM (inactive),> 10 µM (inactive)
C#C[C@]1(O)CC[C@H]2[C@@H]3CCC4=C/C(=N/OC(=O)c5cccc6c(=O)c7ccccc7[nH]c56)CC[C@@H]4[C@H]3CC[C@@]21C,51.8 µM (inactive),36.5 µM,66.1 µM (inactive),> 100 µM (inactive),> 100 µM (inactive),17.3 µM (inactive),64.1 µM (inactive),18.2 µM (inactive),56.2 µM (inactive),> 100 µM (inactive),17.4 µM (inactive),> 100 µM (inactive),> 100 µM (inactive),34.8 µM (inactive),16.2 µM (inactive),40.6 µM (inactive),> 100 µM (inactive),42.1 µM (inactive),43.2 µM (inactive)
O=C1C(Cl)=C(NCCc2ccc(O)cc2)C(=O)c2c(O)ccc(O)c21,> 10 µM (inactive),> 10 µM,> 10 µM (inactive),6.56 µM (inactive),> 10 µM (inactive),> 10 µM (inactive),4.8 µM (inactive),> 10 µM (inactive),> 10 µM (inactive),> 10 µM (inactive),5.42 µM (inactive),> 10 µM (inactive),9.46 µM (inactive),7.28 µM (inactive),> 10 µM (inactive),> 10 µM (inactive),> 10 µM (inactive),> 10 µM (inactive),> 10 µM (inactive)
COc1cc(C(=O)Nc2c3ccccc3nc3ccccc23)cc(OC)c1OC,> 91.8 µM (inactive),> 100 µM,> 50.1 µM (inactive),> 36.3 µM (inactive),50.1 µM (inactive),> 54.3 µM (inactive),98.6 µM (inactive),42 µM (inactive),> 100 µM (inactive),> 100 µM (inactive),3.64 µM (inactive),> 100 µM (inactive),> 100 µM (inactive),> 100 µM (inactive),23.2 µM (inactive),> 100 µM (inactive),> 100 µM (inactive),> 59.7 µM (inactive),30 µM (inactive)
CCC1=NC(N/N=C/c2ccccc2O)=N/C1=C\c1ccccc1O,36.3 µM (inactive),2.07 µM,4.11 µM (inactive),8.55 µM (inactive),21.1 µM (inactive),12.2 µM (inactive),2.89 µM (inactive),6.43 µM (inactive),7.5 µM (inactive),12.4 µM (inactive),4.53 µM (inactive),5.6 µM (inactive),6.76 µM (inactive),17 µM (inactive),6.56 µM (inactive),14.4 µM (inactive),21.3 µM (inactive),8.57 µM (inactive),17 µM (inactive)
COC1CC(OC2C(C)OC(OC3C(C)OC(OC4C(C)OC(O[C@H]5CC[C@@]6(C)C(=CC[C@]7(O)[C@@H]6C[C@@H](OC(=O)/C=C(\C)C(C)C)[C@@]6(C)[C@]7(O)CC[C@@]6(O)C(C)=O)C5)CC4OC)CC3OC)CC2OC)OC(C)C1O (stereo partly specified),11.9 µM (inactive),> 12.5 µM,> 12.5 µM (inactive),> 12.5 µM (inactive),> 12.5 µM (inactive),10.9 µM (inactive),> 12.5 µM (inactive),> 12.5 µM (inactive),> 12.5 µM (inactive),> 12.5 µM (inactive),5.11 µM (inactive),> 12.5 µM (inactive),> 12.5 µM (inactive),> 12.5 µM (inactive),> 12.5 µM (inactive),> 12.5 µM (inactive),> 12.5 µM (inactive),> 12.5 µM (inactive),> 12.5 µM (inactive)
O=[N+]([O-])c1cc(/C=N/C23CC4CC(CC(C4)C2)C3)ccc1Cl,11.7 µM (inactive),22.6 µM,24 µM (inactive),4 µM (inactive),34.5 µM (inactive),4.42 µM (inactive),17.9 µM (inactive),13.4 µM (inactive),13 µM (inactive),18.4 µM (inactive),3.03 µM (inactive),19.5 µM (inactive),19.8 µM (inactive),17.1 µM (inactive),8.73 µM (inactive),19.1 µM (inactive),15.9 µM (inactive),25.1 µM (inactive),8.02 µM (inactive)
O=c1cc(-c2ccccc2)oc2c1ccc1nc3ccccc3c(O)c12,> 100 µM (inactive),42.3 µM,43.5 µM (inactive),88.1 µM (inactive),> 100 µM (inactive),> 100 µM (inactive),79.1 µM (inactive),39.9 µM (inactive),> 100 µM (inactive),43.7 µM (inactive),59.7 µM (inactive),34.8 µM (inactive),42 µM (inactive),16.7 µM (inactive),57.4 µM (inactive),89.1 µM (inactive),66.1 µM (inactive),80.5 µM (inactive),> 100 µM (inactive)
S=c1[nH]c2ccc(Br)cc2c(=S)s1,22.8 µM (inactive),29.5 µM,22.2 µM (inactive),34.8 µM (inactive),16.6 µM (inactive),29.6 µM (inactive),26.5 µM (inactive),25.1 µM (inactive),30.8 µM (inactive),30 µM (inactive),21.6 µM (inactive),10.8 µM (inactive),30.8 µM (inactive),29.4 µM (inactive),29.9 µM (inactive),25.6 µM (inactive),19.9 µM (inactive),31.6 µM (inactive),23.4 µM (inactive)
CC1=C(/C=C/C(C)=C/C=C/C(C)=C/C(=O)OCC2OC(n3cc(F)c(=O)[nH]c3=O)CC2OC(=O)/C=C(C)/C=C/C=C(C)/C=C/C2=C(C)CCCC2(C)C)C(C)(C)CCC1 (stereo unspecified),30.1 µM (inactive),13.2 µM,0.418 µM (active),0.306 µM (active),1.25 µM (inactive),4.66 µM (inactive),9.75 µM (inactive),8.2 µM (inactive),12.1 µM (inactive),30.5 µM (inactive),1.14 µM (inactive),> 32.1 µM (inactive),1.15 µM (inactive),23.9 µM (inactive),1.07 µM (active),10.4 µM (inactive),7.43 µM (inactive),1.71 µM (inactive),10.4 µM (inactive)
Cc1ccc2c(c1)nc1n2C(N)=Nc2ccccc2S1,> 21 µM (inactive),24.2 µM,59.7 µM (inactive),> 83.4 µM (inactive),> 40.6 µM (inactive),5.79 µM (inactive),43.3 µM (inactive),> 63.2 µM (inactive),40 µM (inactive),> 100 µM (inactive),2.67 µM (inactive),> 100 µM (inactive),52.7 µM (inactive),43.8 µM (inactive),4.66 µM (inactive),28.7 µM (inactive),> 92.7 µM (inactive),25.5 µM (inactive),5.78 µM (inactive)
CN(C)c1n/c(=N/Cc2ccccc2)ss1,> 10 µM (inactive),> 10 µM,> 10 µM (inactive),> 10 µM (inactive),> 10 µM (inactive),3.21 µM (inactive),> 10 µM (inactive),2.61 µM (inactive),> 10 µM (inactive),> 10 µM (inactive),> 5.2 µM (inactive),> 10 µM (inactive),> 6.82 µM (inactive),> 10 µM (inactive),1.81 µM (inactive),> 10 µM (inactive),> 10 µM (inactive),> 10 µM (inactive),> 10 µM (inactive)
CN1CC[N+](C)=C1c1ccccc1,> 100 µM (inactive),> 100 µM,> 100 µM (inactive),> 100 µM (inactive),> 100 µM (inactive),> 100 µM (inactive),> 100 µM (inactive),> 100 µM (inactive),> 100 µM (inactive),> 100 µM (inactive),> 100 µM (inactive),> 100 µM (inactive),> 100 µM (inactive),> 100 µM (inactive),> 100 µM (inactive),> 100 µM (inactive),> 100 µM (inactive),> 100 µM (inactive),> 100 µM (inactive)
CCN1C(=O)/C(=C/Nc2ccccc2)S/C1=N/Nc1nc(-c2ccc(O)c(O)c2)cs1,6.65 µM (inactive),7.76 µM,15.3 µM (inactive),6.22 µM (inactive),13.2 µM (inactive),3.4 µM (inactive),5.69 µM (inactive),3.66 µM (inactive),8.47 µM (inactive),33.5 µM (inactive),2.33 µM (inactive),40.8 µM (inactive),23 µM (inactive),5.01 µM (inactive),5.53 µM (inactive),7.18 µM (inactive),4.24 µM (inactive),5.07 µM (inactive),1.71 µM (inactive)
